Data as given in ChEMBL document CHEMBL4376837, “New Dual Small Molecules for Alzheimer's Disease Therapy Combining Histamine H3 Receptor (H3R) Antagonism and Calcium Channels Blockade with Additional Cholinesterase Inhibition” (J Med Chem, 2019).
Calls of active or inactive are those of the source. The rule behind the calls is not given here.

How the values were obtained:
Aorta [1] = experiment: Vasodilating activity in Wistar rat endothelium-denuded aortic rings preconstricted with 100 mM KCl assessed as vasorelaxation at 0.1 nM relative to control; design: scale not given: the % may be the effect or the level left; details: 0.0001 µM
Aorta [2] = experiment: Vasodilating activity in Wistar rat endothelium-denuded aortic rings preconstricted with 100 mM KCl assessed as vasorelaxation at 10 nM relative to control; design: scale not given: the % may be the effect or the level left; details: 0.01 µM
Aorta [3] = experiment: Vasodilating activity in Wistar rat endothelium-denuded aortic rings preconstricted with 100 mM KCl assessed as vasorelaxation at 1 nM relative to control; design: scale not given: the % may be the effect or the level left; details: 0.001 µM
[4] = Inhibition of human recombinant AChE using acetylthiocholine iodide substrate by Ellman's protocol based assay
[5] = Antioxidant activity assessed as Trolox equivalents incubated for 15 mins by fluorescein based ORAC-FL assay; format: functional
Histamine H3 receptor = Histamine H3 receptor (Homo sapiens, UniProt Q9Y5N1); experiment: Displacement of [3H]-N-alpha-methylhistamine from human H3 receptor expressed in HEK293 cell membranes incubated for 60 mins by scintillation counting method
[6] = molecular target: Voltage-gated L-type calcium channel (Homo sapiens, UniProt Q13936+Q13698+Q01668+O60840); experiment: Inhibition of voltage-dependent L-type calcium channel in 70 mM K+-induced human SH-SY5Y cells assessed as blocking of depolarization-induced Ca2+ uptake by Fluo-4/AM dye based fluorescence microplate reader assay; format: cell-based
SH-SY5Y [7] = experiment: Neuroprotective activity against Rotenone/Oligomycin A-induced cytotoxicity in human SH-SY5Y cells assessed as protection against cell death at 3 uM incubated for 24 hrs by MTT assay relative to control; format: functional
SH-SY5Y [8] = experiment: Neuroprotective activity against okadaic acid-induced cytotoxicity in human SH-SY5Y cells assessed as protection against cell death at 1 uM incubated for 24 hrs by MTT assay relative to control; format: functional
SH-SY5Y [9] = experiment: Neuroprotective activity against okadaic acid-induced cytotoxicity in human SH-SY5Y cells assessed as protection against cell death at 3 uM incubated for 24 hrs by MTT assay relative to control; format: functional
SH-SY5Y [10] = experiment: Neuroprotective activity against Rotenone/Oligomycin A-induced cytotoxicity in human SH-SY5Y cells assessed as protection against cell death at 0.3 uM incubated for 24 hrs by MTT assay relative to control; format: functional
[11] = molecular target: Histamine H1 receptor (Homo sapiens) (UniProt P35367); experiment: Displacement of [3H]-Pyrilamine from human H1 receptor expressed in CHO-K1 cell membranes incubated for 60 mins by scintillation counting method
Cholinesterase = Cholinesterase (Homo sapiens, UniProt P06276); experiment: Inhibition of BuChE in human plasma using butyrylthiocholine iodide substrate by Ellman's protocol based assay; format: cell-free
SH-SY5Y [12] = experiment: Neuroprotective activity against Rotenone/Oligomycin A-induced cytotoxicity in human SH-SY5Y cells assessed as protection against cell death at 1 uM incubated for 24 hrs by MTT assay relative to control; format: functional
SH-SY5Y [13] = experiment: Neuroprotective activity against okadaic acid-induced cytotoxicity in human SH-SY5Y cells assessed as protection against cell death at 0.1 uM incubated for 24 hrs by MTT assay relative to control; format: functional
Histamine H4 receptor = Histamine H4 receptor (Homo sapiens, UniProt Q9H3N8); experiment: Antagonist activity at human H4 receptor expressed in CHO-K1 cells co-expressing G protein alpha16 assessed as inhibition of histamine-induced calcium mobilization incubated for 16 hrs by aequorin-based functional assay; format: cell-based
[14] = Permeability at 100 uM by PAMPA method
SH-SY5Y [15] = experiment: Neuroprotective activity against Rotenone/Oligomycin A-induced cytotoxicity in human SH-SY5Y cells assessed as protection against cell death at 0.1 uM incubated for 24 hrs by MTT assay relative to control; format: functional
SH-SY5Y [16] = experiment: Neuroprotective activity against okadaic acid-induced cytotoxicity in human SH-SY5Y cells assessed as protection against cell death at 0.3 uM incubated for 24 hrs by MTT assay relative to control; format: functional
Mus musculus [17] = experiment: Neuroprotective activity in mouse model of LPS-induced induced memory impairment assessed as improvement in discrimination index at 10 mg/kg, ip by novel object recognition test; format: functional, organism-based
Mus musculus [18] = experiment: Neuroprotective activity in mouse model of LPS-induced induced memory impairment assessed as improvement in discrimination index at 1 mg/kg, ip by novel object recognition test; format: functional, organism-based

Sequence of Cholinesterase (P06276 whole entry): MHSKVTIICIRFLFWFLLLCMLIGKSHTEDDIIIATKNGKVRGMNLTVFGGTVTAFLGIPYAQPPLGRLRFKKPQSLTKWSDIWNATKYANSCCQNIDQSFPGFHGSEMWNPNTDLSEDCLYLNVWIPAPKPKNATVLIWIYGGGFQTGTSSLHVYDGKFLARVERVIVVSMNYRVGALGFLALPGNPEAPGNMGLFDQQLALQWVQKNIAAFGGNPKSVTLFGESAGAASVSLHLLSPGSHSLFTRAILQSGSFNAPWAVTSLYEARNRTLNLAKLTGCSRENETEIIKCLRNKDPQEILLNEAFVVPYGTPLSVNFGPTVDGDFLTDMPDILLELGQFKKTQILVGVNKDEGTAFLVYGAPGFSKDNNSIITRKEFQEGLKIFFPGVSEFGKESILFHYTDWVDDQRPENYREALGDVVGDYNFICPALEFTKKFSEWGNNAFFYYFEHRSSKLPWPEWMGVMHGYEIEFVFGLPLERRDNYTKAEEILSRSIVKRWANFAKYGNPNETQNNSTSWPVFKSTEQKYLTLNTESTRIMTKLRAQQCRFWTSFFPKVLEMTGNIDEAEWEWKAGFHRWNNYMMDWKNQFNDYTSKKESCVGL
Sequence of Histamine H3 receptor (Q9Y5N1 whole entry): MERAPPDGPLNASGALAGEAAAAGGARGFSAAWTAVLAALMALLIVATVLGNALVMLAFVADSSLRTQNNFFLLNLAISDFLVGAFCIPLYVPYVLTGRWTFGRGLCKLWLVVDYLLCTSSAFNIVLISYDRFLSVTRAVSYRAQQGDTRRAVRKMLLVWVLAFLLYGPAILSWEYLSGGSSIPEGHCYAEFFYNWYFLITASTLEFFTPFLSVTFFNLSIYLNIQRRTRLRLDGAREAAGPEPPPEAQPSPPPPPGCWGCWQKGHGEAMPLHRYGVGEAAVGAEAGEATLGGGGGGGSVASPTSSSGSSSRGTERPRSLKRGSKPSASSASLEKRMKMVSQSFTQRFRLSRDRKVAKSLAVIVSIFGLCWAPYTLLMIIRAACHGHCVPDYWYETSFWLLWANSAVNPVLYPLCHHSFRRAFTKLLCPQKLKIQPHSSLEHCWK
Sequence of Histamine H4 receptor (Q9H3N8 whole entry): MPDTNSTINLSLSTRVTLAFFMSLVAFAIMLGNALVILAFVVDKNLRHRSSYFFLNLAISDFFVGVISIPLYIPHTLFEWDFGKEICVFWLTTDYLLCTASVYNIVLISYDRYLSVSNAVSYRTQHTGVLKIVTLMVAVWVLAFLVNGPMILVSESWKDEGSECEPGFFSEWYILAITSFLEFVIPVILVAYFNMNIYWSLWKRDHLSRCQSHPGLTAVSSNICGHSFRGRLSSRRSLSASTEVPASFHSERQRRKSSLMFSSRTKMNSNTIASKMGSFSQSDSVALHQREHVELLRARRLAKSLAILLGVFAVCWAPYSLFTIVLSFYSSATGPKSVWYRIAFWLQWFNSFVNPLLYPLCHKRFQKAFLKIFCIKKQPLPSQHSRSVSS
Sequence of Histamine H1 receptor (Homo sapiens) (P35367 whole entry): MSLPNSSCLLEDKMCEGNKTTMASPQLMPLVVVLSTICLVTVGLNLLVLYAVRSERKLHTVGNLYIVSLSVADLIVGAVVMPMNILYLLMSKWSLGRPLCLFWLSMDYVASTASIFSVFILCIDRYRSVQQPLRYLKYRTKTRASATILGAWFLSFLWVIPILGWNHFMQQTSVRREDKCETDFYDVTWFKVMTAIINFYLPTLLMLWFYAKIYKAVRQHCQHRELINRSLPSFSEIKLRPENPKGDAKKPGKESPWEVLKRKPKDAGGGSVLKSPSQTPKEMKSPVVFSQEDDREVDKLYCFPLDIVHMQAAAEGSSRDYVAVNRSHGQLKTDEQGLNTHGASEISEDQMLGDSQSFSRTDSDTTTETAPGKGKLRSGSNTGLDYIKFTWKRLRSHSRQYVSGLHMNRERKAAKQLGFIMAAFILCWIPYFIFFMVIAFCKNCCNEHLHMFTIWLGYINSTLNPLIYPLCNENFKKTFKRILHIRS

Structure (SMILES) | inhibition [4] | Activity [5] [equiv] | Ki (Histamine H3 receptor) [µM] | inhibition (Histamine H3 receptor) [%] | other results
COC(=O)C1=C(C)NC(C)=C(C(=O)OC)C1c1ccccc1[N+](=O)[O-] [NIFEDIPINE] |  |  |  |  | Activity (Aorta [1]; Aorta): 12%; Activity (Aorta [2]; Aorta): 81%; Activity (Aorta [3]; Aorta): 37%
CCOC(=O)C1=C(C)NC(C)=C(C(=O)OCC)C1c1ccc(OCCCN2CCCCC2)cc1 | inactive | 2.3 | 0.04 |  | 
CCOC(=O)C1=C(C)NC(C)=C(C(=O)OCC)C1c1ccc(OCCCCN2CCCCC2)cc1 | inactive | 2.2 |  | 49 | 
CCOC(=O)C1=C(C)NC(C)=C(C(=O)OCC)C1c1ccc(OCCN2CCCCCC2)c(Cl)c1 | inactive | 2.4 |  | 19 | IC50 [6]: 4 µM
CCOC(=O)C1=C(C)NC(C)=C(C(=O)OCC)C1c1ccc(OCCN2CCCCC2)c(Br)c1 | inactive | 2.2 |  | 37 | IC50 [6]: 2.8 µM
CCOC(=O)C1=C(C)NC(C)=C(C(=O)OCC)C1c1ccc(OCCN2CCCCC2)c(OC)c1 | inactive | 3.9 |  | < 5 | IC50 [6]: 26 µM
COc1cc(/C=C/C(=O)O)ccc1O |  | 3.7 |  |  | 
CCOC(=O)C1=C(C)NC(C)=C(C(=O)OCC)C1c1ccc(OCCCN2CCCC2)c(OC)c1 | inactive | 2.3 |  | 23 | 
CCOC(=O)C1=C(C)NC(C)=C(C(=O)OCC)C1c1ccc(OCCN2CCCCC2)cc1 | inactive | 2.4 |  | 18 | 
CCOC(=O)C1=C(C)NC(C)=C(C(=O)OCC)C1c1ccc(OCCCN2CCCCC2)c(OC)c1 | inactive | 2.3 |  | 20 | 
CCOC(=O)C1=C(C)NC(C)=C(C(=O)OCC)C1c1ccc(OCCCCCN2CCCC2)cc1 | inactive | 2.8 | 0.425 |  | Activity (SH-SY5Y [7]): 35.4%; Activity (SH-SY5Y [8]): 18.5%; Activity (SH-SY5Y [9]): 16%; Activity (SH-SY5Y [10]): 48.9%; inhibition [11]: inactive; IC50 (Cholinesterase): 6.07 µM; Activity (SH-SY5Y [12]): 52.8%; Activity (SH-SY5Y [13]): 7.21%; inhibition (Histamine H4 receptor): inactive; Papp at 100 µM [14]: 10 ×10⁻⁶ cm/s; Activity (SH-SY5Y [15]): 35.5%; Activity (SH-SY5Y [16]): 8.81%; Activity (Mus musculus [17]): inactive
CCOC(=O)C1=C(C)NC(C)=C(C(=O)OCC)C1c1ccc(OCCN2CCCCC2)c(Cl)c1 | inactive | 2.5 |  | 17 | IC50 [6]: 2.9 µM
COc1cc2c(cc1OC)C(=O)C(CC1CCN(Cc3ccccc3)CC1)C2 (stereo not given) |  |  |  |  | Activity (Mus musculus [18]): Active
CCOC(=O)C1=C(C)NC(C)=C(C(=O)OCC)C1c1ccc(OCCN2CCCCCC2)c(Br)c1 | inactive | 3 |  | 8 | IC50 [6]: 1.5 µM
CCOC(=O)C1=C(C)NC(C)=C(C(=O)OCC)C1c1ccc(OCCCCCN2CCCCC2)cc1 | inactive | 3.6 | 0.565 |  | Activity (SH-SY5Y [7]): 49.9%; Activity (SH-SY5Y [8]): 41.8%; Activity (SH-SY5Y [9]): 20.9%; Activity (Aorta [1]): Non-Toxic; Activity (SH-SY5Y [10]): 35.1%; inhibition [11]: inactive; IC50 (Cholinesterase): 7.83 µM; Activity (SH-SY5Y [12]): 64.8%; Activity (SH-SY5Y [13]): inactive; IC50 (Histamine H4 receptor): 1.4 µM; Papp at 100 µM [14]: 8.6 ×10⁻⁶ cm/s; Activity (SH-SY5Y [15]): 17%; Activity (Aorta [2]): 5%; Activity (Aorta [3]): Non-Toxic; Activity (SH-SY5Y [16]): inactive; Activity (Mus musculus [17]): Active
CCOC(=O)C1=C(C)NC(C)=C(C(=O)OCC)C1c1ccc(OCCCN2CCCC2)cc1 | inactive | 3.5 | 0.083 |  | 
CCOC(=O)C1=C(C)NC(C)=C(C(=O)OCC)C1c1ccc(OCCCCN2CCCC2)cc1 | inactive | 3.3 | 0.06 |  | IC50 (Cholinesterase): 7.22 µM
CCOC(=O)C1=C(C)NC(C)=C(C(=O)OCC)C1c1ccc(OCCCN2CCCCC2)c(OCC)c1 | inactive | 2.4 | 1.62 |  | 
COc1ccc2[nH]cc(CCNC(C)=O)c2c1 [MELATONIN] |  |  |  |  | Activity (SH-SY5Y [13]): 76%; Activity (SH-SY5Y [15]): 58.2%
CCOC(=O)C1=C(C)NC(C)=C(C(=O)OCC)C1c1ccc(OCCCN2CCCC2)c(OCC)c1 | inactive | 2.8 |  | 19 | 
